Laboratory results from patent US10870647B2, “Imidazopyridine derivative, method for preparing same, and pharmaceutical composition containing same as active ingredient for preventing or treating cancer” (DAEGU-GYEONGBUK MEDICAL INNOVATION FOUNDATION, priority 2016, dated 2020).
Read-outs that look alike come from different tables or passages of the source.

Tests used:
Assay in all cases: Kinase selectivity, scanMAX Kinase assay panel (DiscoverX), % control at 1 uM
Format in all cases: binding
[1] = molecular target: T1, scanMAX Kinase assay panel (Homo sapiens, UniProt P11802); settings: 1 uM, read-out: Percent Control (%)
T1 construct: purchased DiscoverX
Method: (§1) The following experiment was performed to evaluate the inhibitory activity of the compound of the present invention on more enzymes.
(§2) Particularly, among the compounds of the present invention, the compounds of Example 1, Example 12 and Example 78 were selected and assigned to DiscoverX to measure the kinase selectivity. The experiment was performed by using scanMAX™ Kinase assay panel.
(§3) At this time, the concentration of the drug to be treated to the enzyme was adjusted to 1 uM in DMSO, and the control percentage (% control) was determined according to the following Equation 1. [Example Compound−Positive Control/Negative Control−Positive Control]×100 [Equation 1]
(§4) The enzyme selectivity of the compound of the present invention was judged to be active for the enzyme if the % control was <35 (i.e. less than 35%) for each enzyme.

[2] = molecular target: T2, scanMAX Kinase assay panel (Homo sapiens, UniProt P15735); settings: PHKG2; 1 uM; read-out: Percent Control (%)
T2 construct: purchased DiscoverX
T2 sequence (P15735 1-406): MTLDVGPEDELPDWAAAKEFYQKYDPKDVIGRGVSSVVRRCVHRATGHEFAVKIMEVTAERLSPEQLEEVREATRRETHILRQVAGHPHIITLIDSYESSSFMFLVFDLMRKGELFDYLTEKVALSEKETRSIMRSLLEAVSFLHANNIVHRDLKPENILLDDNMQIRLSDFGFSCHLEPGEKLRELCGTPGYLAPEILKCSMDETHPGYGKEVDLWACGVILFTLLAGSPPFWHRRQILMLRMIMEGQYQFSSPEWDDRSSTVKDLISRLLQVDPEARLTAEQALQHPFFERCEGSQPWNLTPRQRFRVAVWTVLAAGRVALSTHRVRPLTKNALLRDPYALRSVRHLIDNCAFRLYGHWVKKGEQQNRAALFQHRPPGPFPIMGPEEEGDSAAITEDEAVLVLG
Method: as §1, §2, §3, §4

[3] = molecular target: T3, scanMAX Kinase assay panel (Homo sapiens, UniProt P51955); settings: NEK2; 1 uM; read-out: Percent Control (%)
T3 construct: purchased DiscoverX
T3 sequence (P51955 1-445): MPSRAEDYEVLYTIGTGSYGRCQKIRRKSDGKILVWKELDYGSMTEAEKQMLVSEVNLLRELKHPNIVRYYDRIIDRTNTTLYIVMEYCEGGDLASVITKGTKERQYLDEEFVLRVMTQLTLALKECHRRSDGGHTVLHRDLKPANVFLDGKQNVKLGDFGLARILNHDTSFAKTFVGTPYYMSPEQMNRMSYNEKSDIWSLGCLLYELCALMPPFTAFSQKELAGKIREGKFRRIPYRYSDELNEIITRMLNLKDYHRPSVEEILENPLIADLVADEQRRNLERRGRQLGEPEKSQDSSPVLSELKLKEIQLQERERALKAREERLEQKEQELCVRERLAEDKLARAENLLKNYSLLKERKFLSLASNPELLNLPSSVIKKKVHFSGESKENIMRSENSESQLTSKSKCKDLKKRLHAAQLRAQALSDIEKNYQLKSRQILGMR
Method: as §1, §2, §3, §4

[4] = molecular target: T4, scanMAX Kinase assay panel (Homo sapiens, UniProt Q12866); settings: MERTK; 1 uM; read-out: Percent Control (%)
T4 construct: purchased DiscoverX
T4 sequence (Q12866 21-999): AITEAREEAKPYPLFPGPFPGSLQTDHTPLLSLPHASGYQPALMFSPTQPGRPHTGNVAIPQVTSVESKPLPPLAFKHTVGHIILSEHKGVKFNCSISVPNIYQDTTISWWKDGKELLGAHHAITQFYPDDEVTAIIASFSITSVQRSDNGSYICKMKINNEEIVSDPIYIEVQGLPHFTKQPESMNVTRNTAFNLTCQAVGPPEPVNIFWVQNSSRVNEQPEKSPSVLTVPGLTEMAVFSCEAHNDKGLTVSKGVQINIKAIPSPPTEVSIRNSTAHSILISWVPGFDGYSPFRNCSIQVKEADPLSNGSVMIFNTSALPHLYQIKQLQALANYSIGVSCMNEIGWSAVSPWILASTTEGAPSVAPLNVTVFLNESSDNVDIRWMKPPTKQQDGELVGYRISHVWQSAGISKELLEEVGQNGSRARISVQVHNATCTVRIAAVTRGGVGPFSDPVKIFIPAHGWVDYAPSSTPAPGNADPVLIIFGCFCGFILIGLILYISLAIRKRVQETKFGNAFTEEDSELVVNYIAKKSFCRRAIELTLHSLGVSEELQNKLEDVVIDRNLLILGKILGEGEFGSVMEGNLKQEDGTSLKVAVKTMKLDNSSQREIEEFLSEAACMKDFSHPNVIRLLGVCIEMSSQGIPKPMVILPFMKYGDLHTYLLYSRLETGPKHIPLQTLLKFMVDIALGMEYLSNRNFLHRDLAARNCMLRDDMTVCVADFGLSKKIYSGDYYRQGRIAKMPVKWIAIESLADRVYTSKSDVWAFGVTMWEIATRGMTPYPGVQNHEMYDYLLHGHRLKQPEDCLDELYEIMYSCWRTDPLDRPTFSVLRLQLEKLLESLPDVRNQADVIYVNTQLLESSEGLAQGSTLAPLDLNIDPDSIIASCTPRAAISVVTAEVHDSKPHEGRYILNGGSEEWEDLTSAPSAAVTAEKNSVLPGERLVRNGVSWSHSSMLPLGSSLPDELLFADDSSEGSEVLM
Method: as §1, §2, §3, §4

[5] = molecular target: T5, scanMAX Kinase assay panel (Homo sapiens, UniProt Q5VT25); settings: MRCKA; 1 uM; read-out: Percent Control (%)
T5 construct: purchased DiscoverX
Method: as §1, §2, §3, §4

[6] = molecular target: T6, scanMAX Kinase assay panel (Homo sapiens, UniProt Q86Y07); settings: VRK2; 1 uM; read-out: Percent Control (%)
T6 construct: purchased DiscoverX
Method: as §1, §2, §3, §4

T6 sequence (Q86Y07 whole entry): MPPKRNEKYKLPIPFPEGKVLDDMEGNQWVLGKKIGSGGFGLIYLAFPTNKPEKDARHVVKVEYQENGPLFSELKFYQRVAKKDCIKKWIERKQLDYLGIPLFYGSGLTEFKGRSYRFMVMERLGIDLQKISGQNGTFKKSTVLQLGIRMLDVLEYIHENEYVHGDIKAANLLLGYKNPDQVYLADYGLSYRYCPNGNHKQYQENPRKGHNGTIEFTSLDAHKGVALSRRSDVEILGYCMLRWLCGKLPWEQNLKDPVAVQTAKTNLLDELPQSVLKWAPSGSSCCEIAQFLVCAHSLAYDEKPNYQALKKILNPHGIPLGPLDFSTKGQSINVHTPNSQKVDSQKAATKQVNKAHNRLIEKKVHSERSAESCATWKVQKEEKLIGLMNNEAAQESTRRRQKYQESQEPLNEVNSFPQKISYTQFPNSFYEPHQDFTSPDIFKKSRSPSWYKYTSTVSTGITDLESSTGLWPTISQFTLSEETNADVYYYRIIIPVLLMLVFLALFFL
T1 sequence (P11802 whole entry): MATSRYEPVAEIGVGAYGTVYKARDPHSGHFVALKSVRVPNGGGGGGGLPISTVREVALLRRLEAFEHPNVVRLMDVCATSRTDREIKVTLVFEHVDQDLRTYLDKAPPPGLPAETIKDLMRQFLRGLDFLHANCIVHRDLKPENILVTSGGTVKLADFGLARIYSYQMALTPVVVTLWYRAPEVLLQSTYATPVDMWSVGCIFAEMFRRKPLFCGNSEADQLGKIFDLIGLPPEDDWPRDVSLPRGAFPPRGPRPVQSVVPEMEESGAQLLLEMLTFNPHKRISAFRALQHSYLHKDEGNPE
T5 sequence (Q5VT25 whole entry): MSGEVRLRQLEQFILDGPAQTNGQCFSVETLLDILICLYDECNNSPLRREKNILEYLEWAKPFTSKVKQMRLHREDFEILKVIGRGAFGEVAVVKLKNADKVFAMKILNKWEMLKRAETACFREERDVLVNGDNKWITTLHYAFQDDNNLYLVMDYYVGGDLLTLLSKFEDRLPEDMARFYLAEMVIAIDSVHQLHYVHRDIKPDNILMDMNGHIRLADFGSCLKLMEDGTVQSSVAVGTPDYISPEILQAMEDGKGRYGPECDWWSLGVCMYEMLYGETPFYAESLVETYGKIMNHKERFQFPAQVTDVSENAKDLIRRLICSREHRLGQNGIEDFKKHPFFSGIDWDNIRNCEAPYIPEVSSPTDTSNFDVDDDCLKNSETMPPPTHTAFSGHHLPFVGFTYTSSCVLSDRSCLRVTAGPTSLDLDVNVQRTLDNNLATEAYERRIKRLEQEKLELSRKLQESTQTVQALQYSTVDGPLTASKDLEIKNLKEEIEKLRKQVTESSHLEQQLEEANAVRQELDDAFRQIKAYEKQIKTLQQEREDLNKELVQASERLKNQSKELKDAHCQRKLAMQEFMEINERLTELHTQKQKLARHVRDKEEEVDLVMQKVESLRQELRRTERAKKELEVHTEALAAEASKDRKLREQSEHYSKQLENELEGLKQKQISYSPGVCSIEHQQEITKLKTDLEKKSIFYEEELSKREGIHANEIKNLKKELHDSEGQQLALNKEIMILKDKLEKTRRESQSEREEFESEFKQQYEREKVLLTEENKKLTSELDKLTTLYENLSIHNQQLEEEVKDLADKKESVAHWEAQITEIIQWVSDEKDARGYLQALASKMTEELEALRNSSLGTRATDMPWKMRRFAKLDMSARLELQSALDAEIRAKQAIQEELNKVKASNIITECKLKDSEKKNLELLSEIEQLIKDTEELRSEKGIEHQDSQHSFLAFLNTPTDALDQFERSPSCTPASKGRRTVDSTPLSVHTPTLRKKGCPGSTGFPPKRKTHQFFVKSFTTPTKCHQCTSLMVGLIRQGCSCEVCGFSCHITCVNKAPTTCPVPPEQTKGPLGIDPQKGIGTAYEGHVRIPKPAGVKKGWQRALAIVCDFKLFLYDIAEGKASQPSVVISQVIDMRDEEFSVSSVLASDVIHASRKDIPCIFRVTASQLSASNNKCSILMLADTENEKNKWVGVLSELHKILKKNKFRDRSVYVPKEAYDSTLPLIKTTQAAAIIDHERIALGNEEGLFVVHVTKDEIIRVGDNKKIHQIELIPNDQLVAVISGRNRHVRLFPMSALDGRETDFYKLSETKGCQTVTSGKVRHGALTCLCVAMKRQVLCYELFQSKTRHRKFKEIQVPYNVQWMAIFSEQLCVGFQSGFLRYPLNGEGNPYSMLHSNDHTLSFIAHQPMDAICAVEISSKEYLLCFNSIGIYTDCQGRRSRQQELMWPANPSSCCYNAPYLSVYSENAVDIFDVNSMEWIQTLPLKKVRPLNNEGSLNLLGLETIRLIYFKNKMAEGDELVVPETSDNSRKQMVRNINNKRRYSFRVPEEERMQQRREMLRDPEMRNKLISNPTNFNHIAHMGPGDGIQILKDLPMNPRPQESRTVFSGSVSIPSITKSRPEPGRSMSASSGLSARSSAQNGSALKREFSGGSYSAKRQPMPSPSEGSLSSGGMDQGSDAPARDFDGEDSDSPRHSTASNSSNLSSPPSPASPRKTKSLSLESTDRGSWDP

Compound | remaining binding at 1 µM ([1]; CDK4-cyclinD1) [%] | remaining binding at 1 µM ([1]; CDK4-cyclinD3) [%] | remaining binding at 1 µM ([1]; CDK4) [%] | remaining binding at 1 µM [2] [%] | remaining binding at 1 µM [3] [%] | remaining binding at 1 µM [4] [%] | remaining binding at 1 µM [5] [%] | remaining binding at 1 µM [6] [%]
Cc1ccc(NC(=O)C2(C(=O)Nc3ccc(F)cc3)CC2)cc1C#Cc1cnc2c(Nc3cnn(C(C)C)c3)cccn12 [Example 78] | 100 | 100 | 100 | 100 | 100 | 100 | 100 | 100
Cc1cn(-c2cc(NC(=O)c3ccc(C)c(C#Cc4cnc5c(Nc6cnn(C)c6)cccn45)c3)cc(C(F)(F)F)c2)cn1 [Example 12, 4-methyl-N-(3-(4-methyl-1H-imidazol-1-yl)-5-(trifluoromethyl)phenyl)-3-((8-((1-methyl-1H-pyrazol-4-yl)amino)imidazo[1,2-a]pyridin-3-yl)ethynyl)benzamide] | 100 | 100 | 100 | 89 | 100 | 3 | 91 | 100
Cc1ccc(C(=O)Nc2ccc(CN3CCN(C)CC3)c(C(F)(F)F)c2)cc1C#Cc1cnc2c(Nc3cnn(C)c3)cccn12 [Example 1, 4-methyl-3-((8-((1-methyl-1H-pyrazol-4-yl)amino)imidazo[1,2-a]pyridin-3-yl)ethynyl)-N-(4-((4-methylpiperazin-1-yl)methyl)-3-(trifluoromethyl)phenyl)benzamide] | 84 | 78 | 83 | 72 | 80 | 0 | 96 | 86
